Reference: PubChem BioAssay (NCI)
“And” between values parts separate entries of the source, which are not always exact repeats. Equal entries are not always repeated.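 Growth conditions: 96-well plates. Treatment: test compound, 48 hours, 5 concentrations. Analysis: linear interpolation between bracketing concentrations; unreached endpoints set to highest concentration. The concentration for 50% growth inhibition is given as GI50. TGI is the concentration that stops growth completely.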

What was measured:
Assay in all cases: NCI-60 cell line screen, 48 h
UACC-62 melanoma = system: UACC-62 melanoma
CAKI-1 renal = system: CAKI-1 renal
MCF7 breast = system: MCF7 breast
PC-3 prostate = system: PC-3 prostate
OVCAR-3 ovarian = system: OVCAR-3 ovarian
SR leukemia = system: SR leukemia
A498 renal = system: A498 renal
OVCAR-4 ovarian = system: OVCAR-4 ovarian
DU-145 prostate = system: DU-145 prostate
HL-60(TB) leukemia = system: HL-60(TB) leukemia

Row | SMILES | GI50 (UACC-62 melanoma) | TGI (UACC-62 melanoma) [µM] | GI50 (CAKI-1 renal) [µM] | TGI (CAKI-1 renal) [µM] | GI50 (MCF7 breast) | TGI (MCF7 breast) [µM] | GI50 (PC-3 prostate) | TGI (PC-3 prostate) [µM] | GI50 (OVCAR-3 ovarian) | TGI (OVCAR-3 ovarian) | GI50 (SR leukemia) | TGI (SR leukemia) [µM] | GI50 (A498 renal) | TGI (A498 renal) [µM] | GI50 (OVCAR-4 ovarian) | TGI (OVCAR-4 ovarian) [µM] | GI50 (DU-145 prostate) | TGI (DU-145 prostate) [µM] | GI50 (HL-60(TB) leukemia) | TGI (HL-60(TB) leukemia)
1 | COc1ccccc1[As]=[As]c1ccccc1OC (stereo not drawn) | 0.0663 µM | 0.224 | 0.066 | 0.202 | 0.021 µM | 0.0604 | 0.0619 µM | 0.195 | 0.0234 µM | 0.0531 µM | 0.0277 µM | 0.0707 | 0.0622 µM | 0.184 | 0.0372 µM | 0.146 | 0.0542 µM | 0.173 | 0.0492 µM | 0.262 µM
2 | CC(=O)Nc1ccc(S(=O)(=O)N=S(C)C)cc1 | – | > 100 | – | > 100 | – | > 100 | – | > 100 | – | > 100 µM | – | > 100 | – | > 100 | – | > 100 | – | > 100 | – | > 100 µM
3 | CN(C)Cc1ccc(NC(=O)c2cncc(C#Cc3cnc(N)c4ncccc34)c2)cc1F | 1.83 µM | 3.53 | 15.8 | 32.3 | 1.66 µM | 3.45 | 1.74 µM | 3.34 | 2.07 µM | 3.68 µM | 1.93 µM | 5.93 | 6 µM | 29 | – | – | 1.77 µM | 3.32 | 7.33 µM | 35.7 µM
4 | O=C(Nc1cc(F)c(F)cc1C(=O)O)c1ccc(-n2ccnc2)nn1 | > 100 µM | > 100 | > 100 | > 100 | > 100 µM | > 100 | > 100 µM | > 100 | 42.4 µM | > 100 µM | 27.9 µM | > 100 | 13 µM | 82 | 65.6 µM | > 100 | > 100 µM | > 100 | 38.9 µM | > 100 µM
5 | Cc1nc2sc3c(N)ncnc3c2c(C)c1C | > 25 µM | > 25 | > 25 | > 25 | > 25 µM | > 25 | > 25 µM | > 25 | > 25 µM | > 25 µM | > 25 µM | > 25 | > 25 µM | > 25 | > 25 µM | > 25 | > 25 µM | > 25 | > 25 µM | > 25 µM
6 | CCCc1nc(Cl)c(Cl)c(Cl)n1 | – | > 100 | – | 27.7 | – | > 78.6 | – | > 100 | – | 18.7 µM | – | > 50.7 | – | > 100 | – | 33.4 | – | > 100 | – | 37.2 µM
7 | COc1ccc2c(O)c(/C=C3\N=Nc4ncccc43)oc2c1C[C@@H]1CCNC[C@H]1F | 1.32 µM | 3.79 | 0.848 | 6.47 | 0.118 µM | 1.09 | 0.53 µM | 3.62 | 0.485 µM | 2.74 µM | – | 0.193 | 1.39 µM | 3.66 | 1.41 µM | 3.45 | 0.809 µM | 4.19 | 0.314 µM | 1.14 µM
8 | O=C(Nc1cc(Cl)ccc1O)c1cccc(Nc2ccnc(C(F)(F)F)c2)c1 | 0.901 µM | 11.9 | 2.61 | 12.7 | 2 µM | 17.9 | 2.29 µM | 11.6 | 2.73 µM | 10.4 µM | 0.811 µM | 15.2 | 3.28 µM | 13.4 | 2.32 µM | 17.4 | 5.22 µM | 22.6 | 0.935 µM | 4.03 µM
9 | COc1ccc2c(c1)CCc1cc(OC)ccc1/[N+]([O-])=[N+]\2[O-] | – | 30.6 | – | 34 | – | 26.7 | – | 31.6 | – | 33.9 µM | – | > 42.7 | – | 34.2 | – | – | – | 38.1 | – | 27.6 µM
10 | O=C1Nc2ccccc2/C1=C\c1nc(-c2ccccc2F)n2ccccc12 | 6.32 µM | 25.2 | – | – | 2.1 µM | 12.2 | 6.81 µM | 26.9 | 1.9 µM | 4.38 µM | 11 µM | 29.4 | 2.81 µM | 11 | 1.81 µM | 4.49 | 3.26 µM | 12.9 | 24.9 µM | > 100 µM
11 | O=C(Nc1cc(Cl)cc(Cl)c1)c1cccc(NC2=C(Cl)C(=O)N(Cc3ccccc3)C2=O)c1 | 29.2 µM | > 100 | 30.3 | > 100 | 21.7 µM | > 100 | 19.6 µM | > 100 | 21.8 µM | > 100 µM | 6.02 µM | 80.8 | 22.2 µM | 50.7 | 81.3 µM | > 100 | 32.1 µM | > 100 | – | –
12 | CC[C@H](C)[C@H](NC(=O)[C@H]1CCCCN1C)C(=O)N(C)[C@H](C[C@@H](OC(C)=O)c1cccc(C(=O)N[C@@H](Cc2ccccc2)C[C@H](C)C(=O)O)n1)C(C)C | 0.00038 µM and 0.0025 µM | > 25 | – | – | 0.000341 µM and 0.0025 µM | > 25 | 0.00273 µM and 0.0025 µM | > 25 | 0.000389 µM and < 0.0025 µM | 0.0165 µM and < 0.0025 µM | 0.000529 µM and 0.0025 µM | > 25 | 0.00184 µM and < 0.0025 µM | – | 0.057 µM and 0.0168 µM | > 25 | 0.00286 µM and 0.0025 µM | > 25 | 0.00111 µM and < 0.0025 µM | 0.00592 µM and < 0.0025 µM
13 | CC1=C(C(=O)Nc2ccc(F)c(Cl)c2)C(c2cccc(Oc3ccccc3)c2)NC(=S)N1 (stereo not drawn) | 10 µM | 20.2 | 15.9 | > 50 | 12.8 µM | > 50 | 11.9 µM | 48.2 | 11.3 µM | 28.6 µM | 14.3 µM | > 50 | – | – | – | – | 21.2 µM | > 50 | 17.4 µM | > 50 µM
14 | CCN1C(=O)N(CC)C2C1NN=c1s/c(=C3\C(=O)N(C4CCCC4)c4ccccc43)c(=O)n12 (stereo not drawn) | 0.465 µM | 36 | 0.519 | > 100 | 0.382 µM | > 100 | 1.15 µM | > 100 | 0.516 µM | 2.09 µM | 0.392 µM | > 100 | 0.198 µM | 0.854 | – | – | 2.25 µM | 6.59 | 1.76 µM | 4.94 µM
